Measured values published in patent US4650801A, “Anti-cancer compositions for delivering 5-fluorouracil” (Taiho Pharmaceutical Company, Ltd., priority 1978, dated 1987).
Where “and” joins values, the source holds several entries; their conditions need not be identical. Equal entries are not always repeated. Where two headings read alike, the source gives them in different places. Each block holds one molecule with its values, some of them ahead of it.

How the values were obtained:
AH 130 tumor = settings: rat, in vivo
Method: ^3H-FT- 207(300 μ Ci/Kg) with cytosine were suspended in 5% acasia solution and administered orally to AH 130 bearing rats through a stomach tube, each of 3 rats/group. […] The rat were sacrified at various periods, the tumors were removed and used for analysis. Tumor were homogenized in a equal volume of saline, 1.0 ml of each sample was suspended in 7 volumes of cold methanol and centrifuged at 3000 rpm for 10 min. The precipitate was washed twice with 2 volumes of cold methanol and the mixture was centrifuged. The supernatant was combined with first supernatant and dried under nitrogen. […] Samples were mixed with 10 ml of scintillator containing 4 g of 2,5-diphenyloxazole, 0.4 g of 1,4-bis-[2-(4-methyl-5-phenyloxazolyl)]benzene and 100 g of naphthalene per liter of solvent composed of dioxane: toluene: ethylcellosolve=15:3:2 (v/v/v), and the radio activity was measured with Aloka LSC 673 liquid scintillation spectrometor.

[1] = oral anti-cancer agent; cited from earlier work
[2] = cited from earlier work
sarcoma 180 = assay: Anti-cancer effect on subcutaneously transplanted sarcoma 180 in mice; assay type: in vivo, mouse
Method: The anti-cancer compositions of this invention are tested in mice by the following methods to determine acute toxicity, anti-cancer effect and therapeutic index
Tissues of sarcoma 180, 2×10^6, are subcutaneously transplanted in the back of male mice of ICR strain (6 mice in each group). A 5-fluorouracil (a) and uracil derivative (b) in the proportions listed in Tables 1-16 are suspended in a 5% solution of gum arabic to prepare a suspension. Twenty-four hours after the transplantation and during the following seven consecutive days the suspension is orally given to the animal once every day. On the 10th day after the transplantation, the tumor is removed from the body and weighed to calculate the average weight (T) of the tumors in the group to which the composition has been given and the corresponding weight (C) in the control group to determine the ratio T/C.

SMILES: Nc1ccn([C@H]2C[C@H](O)[C@@H](CO)O2)c(=O)n1 [2'-Deoxycytidine]
- Concentration of 5-FU in cancer tissues (AH 130 tumor; 60 min): 0 ng/mL
- Concentration of 5-FU in cancer tissues (AH 130 tumor; 120 min): 0 ng/mL
- Concentration of 5-FU in cancer tissues (AH 130 tumor; 240 min): 0 ng/mL
- Concentration of 5-FU in cancer tissues (AH 130 tumor; 480 min): 0 ng/mL

SMILES: O=c1[nH]c(=O)n(C2CCCO2)cc1F (stereo not drawn) [Compound 5, 1-(2-Tetrahydrofuryl)-5-fluorouracil]
- efficacy compared with 5-fluorouracil [1]: somewhat inferior to 5-fluorouracil in efficacy
- conversion to 5-fluorouracil in vivo [2]: slowly converted to 5-fluorouracil in vivo
- ED50 (sarcoma 180; (b) = 1(2-Tetrahydrofuryl)uracil, (b)/(a) mol ratio 1): 99 mg/kg
- ED50 (sarcoma 180; (b) = 1(2-Tetrahydrofuryl)uracil, (b)/(a) mol ratio 2): 38 mg/kg
- ED50 (sarcoma 180; (b) = 1(2-Tetrahydrofuryl)uracil, (b)/(a) mol ratio 10): 34 mg/kg
- ED50 (sarcoma 180; (b) = 1Acetyluracil, (b)/(a) mol ratio 1): 49 mg/kg
- ED50 (sarcoma 180; (b) = 1Acetyluracil, (b)/(a) mol ratio 2): 31 mg/kg
- ED50 (sarcoma 180; (b) = 1Acetyluracil, (b)/(a) mol ratio 5): 16 mg/kg
- ED50 (sarcoma 180; (b) = 1Cyclohexylcarbamoyluracil, (b)/(a) mol ratio 0.5): 113 mg/kg
- ED50 (sarcoma 180; (b) = 1Cyclohexylcarbamoyluracil, (b)/(a) mol ratio 2): 55 mg/kg
- ED50 (sarcoma 180; (b) = 1Cyclohexylcarbamoyluracil, (b)/(a) mol ratio 5): 36 mg/kg
- ED50 (sarcoma 180; (b) = 1n-Hexylcarbamoyluracil, (b)/(a) mol ratio 0.5): 112 mg/kg
- ED50 (sarcoma 180; (b) = 1n-Hexylcarbamoyluracil, (b)/(a) mol ratio 2): 52 mg/kg
- ED50 (sarcoma 180; (b) = 1n-Hexylcarbamoyluracil, (b)/(a) mol ratio 10): 43 mg/kg
- ED50 (sarcoma 180; (b) = 2'-Deoxycytidine, (b)/(a) mol ratio 1): 102 mg/kg
- ED50 (sarcoma 180; (b) = 2'-Deoxycytidine, (b)/(a) mol ratio 2): 69 mg/kg
- ED50 (sarcoma 180; (b) = 2'-Deoxycytidine, (b)/(a) mol ratio 20): 39 mg/kg
- ED50 (sarcoma 180; (b) = 2'-Deoxyuridine, (b)/(a) mol ratio 0.5): 82 mg/kg
- ED50 (sarcoma 180; (b) = 2'-Deoxyuridine, (b)/(a) mol ratio 2): 37 mg/kg
- ED50 (sarcoma 180; (b) = 2'-Deoxyuridine, (b)/(a) mol ratio 10): 28 mg/kg
- ED50 (sarcoma 180; (b) = 3Benzoyluracil, (b)/(a) mol ratio 1): 98 mg/kg
- ED50 (sarcoma 180; (b) = 3Benzoyluracil, (b)/(a) mol ratio 2): 37 mg/kg
- ED50 (sarcoma 180; (b) = 3Benzoyluracil, (b)/(a) mol ratio 10): 30 mg/kg
- ED50 (sarcoma 180; (b) = 5Bromo-2'-deoxyuridine, (b)/(a) mol ratio 1): 54 mg/kg
- ED50 (sarcoma 180; (b) = 5Bromo-2'-deoxyuridine, (b)/(a) mol ratio 2): 24 mg/kg
- ED50 (sarcoma 180; (b) = 5Bromo-2'-deoxyuridine, (b)/(a) mol ratio 10): 17 mg/kg
- ED50 (sarcoma 180; (b) = 5Bromouracil, (b)/(a) mol ratio 1): 55 mg/kg
- ED50 (sarcoma 180; (b) = 5Bromouracil, (b)/(a) mol ratio 2): 26 mg/kg
- ED50 (sarcoma 180; (b) = 5Bromouracil, (b)/(a) mol ratio 10): 23 mg/kg
- ED50 (sarcoma 180; (b) = 5Iodouracil, (b)/(a) mol ratio 1): 32 mg/kg
- ED50 (sarcoma 180; (b) = 5Iodouracil, (b)/(a) mol ratio 2): 17 mg/kg
- ED50 (sarcoma 180; (b) = 5Iodouracil, (b)/(a) mol ratio 5): 12 mg/kg
- ED50 (sarcoma 180; (b) = Cytidine, (b)/(a) mol ratio 1): 98 mg/kg
- ED50 (sarcoma 180; (b) = Cytidine, (b)/(a) mol ratio 2): 70 mg/kg
- ED50 (sarcoma 180; (b) = Cytidine, (b)/(a) mol ratio 20): 28 mg/kg
- ED50 (sarcoma 180; (b) = Cytosine, (b)/(a) mol ratio 1): 108 mg/kg
- ED50 (sarcoma 180; (b) = Cytosine, (b)/(a) mol ratio 2): 66 mg/kg
- ED50 (sarcoma 180; (b) = Cytosine, (b)/(a) mol ratio 20): 27 mg/kg
- ED50 (sarcoma 180; (b) = Orotic acid, (b)/(a) mol ratio 1): 112 mg/kg
- ED50 (sarcoma 180; (b) = Orotic acid, (b)/(a) mol ratio 2): 72 mg/kg
- ED50 (sarcoma 180; (b) = Orotic acid, (b)/(a) mol ratio 20): 59 mg/kg
- ED50 (sarcoma 180; (b) = Thymidine, (b)/(a) mol ratio 2): 94 mg/kg
- ED50 (sarcoma 180; (b) = Thymidine, (b)/(a) mol ratio 5): 42 mg/kg
- ED50 (sarcoma 180; (b) = Thymidine, (b)/(a) mol ratio 10): 40 mg/kg
- ED50 (sarcoma 180; (b) = Thymine, (b)/(a) mol ratio 1): 42 mg/kg
- ED50 (sarcoma 180; (b) = Thymine, (b)/(a) mol ratio 2): 28 mg/kg
- ED50 (sarcoma 180; (b) = Thymine, (b)/(a) mol ratio 10): 14 mg/kg
- ED50 (sarcoma 180; (b) = Uridine, (b)/(a) mol ratio 0.5): 129 mg/kg
- ED50 (sarcoma 180; (b) = Uridine, (b)/(a) mol ratio 2): 55 mg/kg
- ED50 (sarcoma 180; (b) = Uridine, (b)/(a) mol ratio 10): 36 mg/kg
- ED50 (sarcoma 180; (b)/(a) mol ratio 0 (alone), oral, 50% cancer inhibition (T/C)): 140 mg/kg and 134 mg/kg

- Concentration of 5-FU in cancer tissues (AH 130 tumor; 60 min): 0 ng/mL
- Concentration of 5-FU in cancer tissues (AH 130 tumor; 120 min): 0 ng/mL
- Concentration of 5-FU in cancer tissues (AH 130 tumor; 240 min): 0 ng/mL
- Concentration of 5-FU in cancer tissues (AH 130 tumor; 480 min): 0 ng/mL
SMILES: Nc1cc[nH]c(=O)n1 [Cytosine]

- Concentration of 5-FU in cancer tissues (AH 130 tumor; 60 min): 33 ng/mL
- Concentration of 5-FU in cancer tissues (AH 130 tumor; 120 min): 24 ng/mL
- Concentration of 5-FU in cancer tissues (AH 130 tumor; 240 min): 11 ng/mL
- Concentration of 5-FU in cancer tissues (AH 130 tumor; 480 min): 8 ng/mL
SMILES: O=c1c(F)cn(C2CCCO2)c(=O)n1C1CCCO1 (stereo not drawn) [FD-1]
